One assay concerns the target T1, human recombinant HDAC6 (Homo sapiens, UniProt Q9UBN7).
T1 construct: purchased Calbiochem Inc. 382180
T1 sequence (Q9UBN7 1-1215): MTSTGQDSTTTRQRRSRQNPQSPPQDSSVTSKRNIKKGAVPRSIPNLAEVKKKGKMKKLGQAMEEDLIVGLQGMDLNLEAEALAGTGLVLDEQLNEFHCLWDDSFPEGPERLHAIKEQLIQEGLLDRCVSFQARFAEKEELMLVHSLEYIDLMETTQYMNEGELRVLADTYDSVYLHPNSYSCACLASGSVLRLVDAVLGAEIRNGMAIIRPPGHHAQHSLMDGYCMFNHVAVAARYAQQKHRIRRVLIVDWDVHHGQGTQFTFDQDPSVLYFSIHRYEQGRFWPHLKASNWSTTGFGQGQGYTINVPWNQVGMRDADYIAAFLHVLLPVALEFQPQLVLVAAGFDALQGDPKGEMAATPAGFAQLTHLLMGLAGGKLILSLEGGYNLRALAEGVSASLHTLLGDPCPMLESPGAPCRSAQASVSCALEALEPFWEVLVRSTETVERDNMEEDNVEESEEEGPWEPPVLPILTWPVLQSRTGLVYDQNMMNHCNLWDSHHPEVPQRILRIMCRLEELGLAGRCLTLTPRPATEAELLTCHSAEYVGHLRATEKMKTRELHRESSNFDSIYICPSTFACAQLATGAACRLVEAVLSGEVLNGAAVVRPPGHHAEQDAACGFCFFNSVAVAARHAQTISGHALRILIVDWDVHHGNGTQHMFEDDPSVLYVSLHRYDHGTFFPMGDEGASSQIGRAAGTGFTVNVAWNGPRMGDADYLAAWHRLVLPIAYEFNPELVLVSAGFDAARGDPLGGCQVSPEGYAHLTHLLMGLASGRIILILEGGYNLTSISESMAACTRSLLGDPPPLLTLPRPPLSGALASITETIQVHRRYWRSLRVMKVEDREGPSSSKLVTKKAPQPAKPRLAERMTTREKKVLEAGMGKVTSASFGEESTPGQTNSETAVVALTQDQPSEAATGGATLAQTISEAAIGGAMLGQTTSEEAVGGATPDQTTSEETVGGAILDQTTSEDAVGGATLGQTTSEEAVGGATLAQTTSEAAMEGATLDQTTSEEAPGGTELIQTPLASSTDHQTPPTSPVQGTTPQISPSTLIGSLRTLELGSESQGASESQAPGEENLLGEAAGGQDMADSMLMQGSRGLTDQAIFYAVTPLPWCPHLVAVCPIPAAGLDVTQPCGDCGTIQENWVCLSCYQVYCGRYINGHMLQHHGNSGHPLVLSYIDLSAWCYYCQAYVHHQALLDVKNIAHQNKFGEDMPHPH
The experiment in a line: HDAC6 enzyme activity inhibition (HDAC Fluorimetric Drug Discovery Kit). The format is biochemical. The following applies: for HDAC6 selectivity (fold): HDAC6 over HDAC1; for IC50: human recombinant HDAC6, same protocol as HDAC1. The gist of the method:
(§1)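 Enzyme at 0.3 µg per well was reacted with 10 μM fluorogenic substrate in presence of 5-fold diluted compound, 30° C for 60 min.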

The next assay addresses T2, human recombinant HDAC1 (Homo sapiens, UniProt Q13547).
T2 construct: purchased Enzo Life Science, Inc. BML-SE456
The assay is described as follows: HDAC1 enzyme activity inhibition (HDAC Fluorimetric Drug Discovery Kit). The class given is biochemical. The gist of the method:
as §1

[1] abbreviates: human recombinant HDAC1, Fluor de Lys substrate, 30° C. 60 minutes, read-out: HDAC1.

The record followed here is patent US20230257372A1 (CHONG KUN DANG PHARMACEUTICAL CORP., priority 2020, published 2023).

Read-outs that look alike come from different tables or passages of the source.

T2 sequence (Q13547 whole entry): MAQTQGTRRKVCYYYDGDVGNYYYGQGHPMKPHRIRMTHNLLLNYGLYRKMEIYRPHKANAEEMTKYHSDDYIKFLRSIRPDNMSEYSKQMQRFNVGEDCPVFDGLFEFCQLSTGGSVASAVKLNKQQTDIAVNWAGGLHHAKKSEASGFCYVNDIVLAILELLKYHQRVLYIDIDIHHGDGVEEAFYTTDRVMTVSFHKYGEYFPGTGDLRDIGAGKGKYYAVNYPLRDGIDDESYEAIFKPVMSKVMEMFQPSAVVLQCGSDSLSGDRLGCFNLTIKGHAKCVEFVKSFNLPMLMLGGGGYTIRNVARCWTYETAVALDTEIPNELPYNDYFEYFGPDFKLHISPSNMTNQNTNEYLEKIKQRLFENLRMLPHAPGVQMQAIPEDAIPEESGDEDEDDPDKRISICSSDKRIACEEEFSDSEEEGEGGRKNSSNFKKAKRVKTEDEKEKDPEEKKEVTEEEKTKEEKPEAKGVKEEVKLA

In the case of `CC1CCN(Cc2ccc(-c3cn(Cc4ccc(-c5nnc(C(F)F)o5)cc4F)nn3)s2)CC1` [Compound 17915], on human recombinant HDAC6, the “HDAC6 selectivity (fold)” value is given as 568 fold and the IC50 is 87.9 nM. Besides, the IC50 on human recombinant HDAC1 (setting [1]) was > 50000 nM.

On to `Fc1cc(-c2nnc(C(F)F)o2)ccc1Cn1cc(-c2ccc(CN3CC[C@H](F)C3)s2)nn1` [Compound 17916], for which the “HDAC6 selectivity (fold)” value at human recombinant HDAC6 was 556 fold. The figures for the IC50 on human recombinant HDAC6 and at human recombinant HDAC1 (setting [1]) were 89.8 nM and > 50000 nM, respectively.

Regarding `Fc1cc(-c2nnc(C(F)F)o2)ccc1Cn1cc(-c2ccc(CN3CC[C@@H](F)C3)s2)nn1` [Compound 17917], at human recombinant HDAC6, the “HDAC6 selectivity (fold)” value is 881 fold and the IC50 worked out at 56.7 nM. In addition, the IC50 on human recombinant HDAC1 (setting [1]) was > 50000 nM.

With `OCc1ccc(-c2cn(Cc3ccc(-c4nnc(C(F)F)o4)cc3F)nn2)s1` [Compound 17922], on human recombinant HDAC6, the “HDAC6 selectivity (fold)” value is listed as 512 fold and the IC50 is 97.6 nM. Further, at human recombinant HDAC1 (setting [1]), the IC50 is > 50000 nM.

As for `Fc1cc(-c2nnc(C(F)F)o2)cnc1Cn1cc(-c2cccs2)nn1` [Compound 17984, 2-(difluoromethyl)-5-(5-fluoro-6-((4-(thiophen-2-yl)-1H-1,2,3-triazol-1-yl)methyl)pyridin-3-yl)-1,3,4-oxadiazole], the “HDAC6 selectivity (fold)” value on human recombinant HDAC6 worked out at 884 fold. Also, the IC50 on human recombinant HDAC6 is 56.5 nM; on human recombinant HDAC1 (setting [1]) it was > 50000 nM.

`Fc1cc(-c2nnc(C(F)F)o2)cnc1Cn1cc(-c2ccc(CN3CCCC3)s2)nn1` [Compound 18059, 2-(difluoromethyl)-5-(5-fluoro-6-((4-(5-(pyrrolidin-1-ylmethyl)thiophen-2-yl)-1H-1,2,3-triazol-1-yl)methyl)pyridin-3-yl)-1,3,4-oxadiazole]: at human recombinant HDAC6, the “HDAC6 selectivity (fold)” value is given as 1295 fold and the IC50 was 38.6 nM. Moreover, the IC50 at human recombinant HDAC1 (setting [1]) is > 50000 nM.

`Fc1cc(-c2nnc(C(F)F)o2)ccc1Cn1cc(-c2ccc(CN3CCC3)nc2)nn1` [Compound 18174, 2-(4-((4-(6-(azetidin-1-ylmethyl)pyridin-3-yl)-1H-1,2,3-triazol-1-yl)methyl)-3-fluorophenyl)-5-(difluoromethyl)-1,3,4-oxadiazole]: on human recombinant HDAC6, the “HDAC6 selectivity (fold)” value amounted to 980 fold and the IC50 is 51 nM. In addition, the IC50 at human recombinant HDAC1 (setting [1]) was > 50000 nM.

For the compound `Fc1cc(-c2nnc(C(F)F)o2)ccc1Cn1cc(-c2ccc(CN3CCCC3)nc2)nn1` [Compound 18175, 2-(difluoromethyl)-5-(3-fluoro-4-((4-(6-(pyrrolidin-1-ylmethyl)pyridin-3-yl)-1H-1,2,3-triazol-1-yl)methyl)phenyl)-1,3,4-oxadiazole], the “HDAC6 selectivity (fold)” value at human recombinant HDAC6 is given as 1184 fold. Also, the values for the IC50 at human recombinant HDAC6 and at human recombinant HDAC1 (setting [1]) were 42.2 nM and > 50000 nM, respectively.

With `CC1CCN(Cc2ccc(-c3cn(Cc4ccc(-c5nnc(C(F)F)o5)cc4F)nn3)cn2)CC1` [Compound 18177, 2-(difluoromethyl)-5-(3-fluoro-4-((4-(6-((4-methylpiperidin-1-yl)methyl)pyridin-3-yl)-1H-1,2,3-triazol-1-yl)methyl)phenyl)-1,3,4-oxadiazole], at human recombinant HDAC6, the “HDAC6 selectivity (fold)” value came to 784 fold and the IC50 stood at 63.7 nM. Also, the IC50 at human recombinant HDAC1 (setting [1]) was > 50000 nM.

As to `Fc1cc(-c2nnc(C(F)F)o2)ccc1Cn1cc(-c2csc(CN3CCC3)c2)nn1` [Compound 18178, 2-(4-((4-(5-(azetidin-1-ylmethyl)thiophen-3-yl)-1H-1,2,3-triazol-1-yl)methyl)-3-fluorophenyl)-5-(difluoromethyl)-1,3,4-oxadiazole], at human recombinant HDAC6, the “HDAC6 selectivity (fold)” value is recorded as 657 fold and the IC50 is 76.1 nM. Besides, the IC50 on human recombinant HDAC1 (setting [1]) is > 50000 nM.

On to `Fc1cc(-c2nnc(C(F)F)o2)ccc1Cn1cc(-c2csc(CN3CC[C@@H](F)C3)c2)nn1` [Compound 18180, (R)-2-(difluoromethyl)-5-(3-fluoro-4-((4-(5-((3-fluoropyrrolidin-1-yl)methyl)thiophen-3-yl)-1H-1,2,3-triazol-1-yl)methyl)phenyl)-1,3,4-oxadiazole], for which, on human recombinant HDAC6, the “HDAC6 selectivity (fold)” value came to 672 fold. Besides, the results for the IC50 on human recombinant HDAC6 and at human recombinant HDAC1 (setting [1]) were 74.3 nM and > 50000 nM, respectively.

Regarding `Fc1cc(-c2nnc(C(F)F)o2)ccc1Cn1cc(-c2csc(CN3CCCC3)c2)nn1` [Compound 18187, 2-(difluoromethyl)-5-(3-fluoro-4-((4-(5-(pyrrolidin-1-ylmethyl)thiophen-3-yl)-1H-1,2,3-triazol-1-yl)methyl)phenyl)-1,3,4-oxadiazole], at human recombinant HDAC6, the “HDAC6 selectivity (fold)” value is listed as 605 fold. The IC50 on human recombinant HDAC6 is 82.6 nM; at human recombinant HDAC1 (setting [1]), > 50000 nM.

Consider `CN(C)Cc1cc(-c2cn(Cc3ccc(-c4nnc(C(F)F)o4)cc3F)nn2)cs1` [Compound 18188, 1-(4-(1-(4-(5-(difluoromethyl)-1,3,4-oxadiazol-2-yl)-2-fluorobenzyl)-1H-1,2,3-triazol-4-yl)thiophen-2-yl)-N,N-dimethylmethanamine], for which, at human recombinant HDAC6, the “HDAC6 selectivity (fold)” value was 668 fold and the IC50 came to 74.8 nM. For the same compound, the IC50 on human recombinant HDAC1 (setting [1]) was > 50000 nM.

For `Fc1cc(-c2nnc(C(F)F)o2)ccc1Cn1cc(-c2ccccn2)nn1` [Compound 18256, 2-(difluoromethyl)-5-(3-fluoro-4-((4-(pyridin-2-yl)-1H-1,2,3-triazol-1-yl)methyl)phenyl)-1,3,4-oxadiazole], on human recombinant HDAC6, the “HDAC6 selectivity (fold)” value stood at 1144 fold and the IC50 turned out to be 43.7 nM. Moreover, the IC50 at human recombinant HDAC1 (setting [1]) is > 50000 nM.

As for `Fc1cc(-c2nnc(C(F)F)o2)ccc1Cn1cc(-c2cccs2)nn1` [Compound 18258, 2-(difluoromethyl)-5-(3-fluoro-4-((4-(thiophen-2-yl)-1H-1,2,3-triazol-1-yl)methyl)phenyl)-1,3,4-oxadiazole], at human recombinant HDAC6, the “HDAC6 selectivity (fold)” value worked out at 582 fold and the IC50 amounted to 85.9 nM. In addition, on human recombinant HDAC1 (setting [1]), the IC50 is > 50000 nM.

Take `Fc1cc(-c2nnc(C(F)F)o2)ccc1Cn1cc(-c2ccc(CN3CC[C@@H](F)C3)cn2)nn1` [Compound 18260, (R)-2-(difluoromethyl)-5-(3-fluoro-4-((4-(5-((3-fluoropyrrolidin-1-yl)methyl)pyridin-2-yl)-1H-1,2,3-triazol-1-yl)methyl)phenyl)-1,3,4-oxadiazole]: the “HDAC6 selectivity (fold)” value at human recombinant HDAC6 turned out to be 775 fold. Also, the IC50 on human recombinant HDAC6 was 64.5 nM; on human recombinant HDAC1 (setting [1]), > 50000 nM.

`Fc1cc(-c2nnc(C(F)F)o2)cnc1Cn1cc(-c2cccnc2)nn1` [Compound 18305, 2-(difluoromethyl)-5-(5-fluoro-6-((4-(pyridin-3-yl)-1H-1,2,3-triazol-1-yl)methyl)pyridin-3-yl)-1,3,4-oxadiazole]: on human recombinant HDAC6, the “HDAC6 selectivity (fold)” value came to 539 fold and the IC50 was determined as 92.7 nM. The IC50 at human recombinant HDAC1 (setting [1]) was > 50000 nM.

Take `CC1CCN(Cc2ccc(-c3cn(Cc4ncc(-c5nnc(C(F)F)o5)cc4F)nn3)s2)CC1` [Compound 18310, 2-(difluoromethyl)-5-(5-fluoro-6-((4-(5-((4-methylpiperidin-1-yl)methyl)thiophen-2-yl)-1H-1,2,3-triazol-1-yl)methyl)pyridin-3-yl)-1,3,4-oxadiazole]: at human recombinant HDAC6, the “HDAC6 selectivity (fold)” value was 986 fold and the IC50 worked out at 50.7 nM. The IC50 at human recombinant HDAC1 (setting [1]) is > 50000 nM.

Regarding `CN(C)Cc1ccc(-c2cn(Cc3ncc(-c4nnc(C(F)F)o4)cc3F)nn2)s1` [Compound 18311, 1-(5-(1-((5-(5-(difluoromethyl)-1,3,4-oxadiazol-2-yl)-3-fluoropyridin-2-yl)methyl)-1H-1,2,3-triazol-4-yl)thiophen-2-yl)-N,N-dimethylmethanamine], at human recombinant HDAC6, the “HDAC6 selectivity (fold)” value was determined as 934 fold and the IC50 was 53.5 nM. In addition, the IC50 at human recombinant HDAC1 (setting [1]) was > 50000 nM.

Consider `Fc1cc(-c2nnc(C(F)F)o2)ccc1Cn1cc(-c2ccc(N3CCN(C4CCOCC4)CC3)c(F)c2)nn1` [Compound 18327, 2-(difluoromethyl)-5-(3-fluoro-4-((4-(3-fluoro-4-(4-(tetrahydro-2H-pyran-4-yl)piperazin-1-yl)phenyl)-1H-1,2,3-triazol-1-yl)methyl)phenyl)-1,3,4-oxadiazole], for which, on human recombinant HDAC6, the “HDAC6 selectivity (fold)” value amounted to 502 fold and the IC50 is 99.5 nM. Besides, the IC50 at human recombinant HDAC1 is > 50000 nM.
